Source: ChEMBL document CHEMBL4184317, “Discovery of Tetrahydroquinoxalines as Bromodomain and Extra-Terminal Domain (BET) Inhibitors with Selectivity for the Second Bromodomain” (J Med Chem, 2018)
pIC50, pKd: −log10 of the molar value.

What was measured:
[1] = target: T1, Bromodomain-containing protein 2 (Homo sapiens, UniProt P25440); test: Inhibition of human BRD2 BD1 after 30 mins by TR-FRET assay
[2] = target: T1, Bromodomain-containing protein 2; test: Inhibition of human BRD2 BD2 after 30 mins by TR-FRET assay
[3] = target: Bromodomain-containing protein 3 (Homo sapiens, UniProt Q15059); test: Inhibition of BRD3 BD2 (unknown origin) after 30 mins by TR-FRET assay
[4] = target: T2, Bromodomain testis-specific protein (Homo sapiens, UniProt Q58F21); test: Inhibition of BRDT BD1 (unknown origin) after 30 mins by TR-FRET assay
[5] = target: T2, Bromodomain testis-specific protein; test: Inhibition of BRDT BD2 (unknown origin) after 30 mins by TR-FRET assay
[6] = target: T3, Bromodomain-containing protein 4 (Homo sapiens, UniProt O60885); test: Binding affinity to human partial length DNA-tagged BRD4 isoform long BD1 expressed in bacterial by BROMOscan method
[7] = target: T1, Bromodomain-containing protein 2; test: Binding affinity to human partial length DNA-tagged BRD2 isoform 1 BD2 expressed in bacterial by BROMOscan method
[8] = target: T2, Bromodomain testis-specific protein; test: Binding affinity to human partial length DNA-tagged BRDT isoform b BD1 expressed in bacterial by BROMOscan method
[9] = target: T2, Bromodomain testis-specific protein; test: Binding affinity to human partial length DNA-tagged BRDT isoform b BD2 expressed in bacterial by BROMOscan method
Peregrin = target: T4, Peregrin (Homo sapiens, UniProt P55201); test: Binding affinity to human partial length DNA-tagged BRPF1 expressed in bacterial by BROMOscan method
T4 sequence (P55201 whole entry): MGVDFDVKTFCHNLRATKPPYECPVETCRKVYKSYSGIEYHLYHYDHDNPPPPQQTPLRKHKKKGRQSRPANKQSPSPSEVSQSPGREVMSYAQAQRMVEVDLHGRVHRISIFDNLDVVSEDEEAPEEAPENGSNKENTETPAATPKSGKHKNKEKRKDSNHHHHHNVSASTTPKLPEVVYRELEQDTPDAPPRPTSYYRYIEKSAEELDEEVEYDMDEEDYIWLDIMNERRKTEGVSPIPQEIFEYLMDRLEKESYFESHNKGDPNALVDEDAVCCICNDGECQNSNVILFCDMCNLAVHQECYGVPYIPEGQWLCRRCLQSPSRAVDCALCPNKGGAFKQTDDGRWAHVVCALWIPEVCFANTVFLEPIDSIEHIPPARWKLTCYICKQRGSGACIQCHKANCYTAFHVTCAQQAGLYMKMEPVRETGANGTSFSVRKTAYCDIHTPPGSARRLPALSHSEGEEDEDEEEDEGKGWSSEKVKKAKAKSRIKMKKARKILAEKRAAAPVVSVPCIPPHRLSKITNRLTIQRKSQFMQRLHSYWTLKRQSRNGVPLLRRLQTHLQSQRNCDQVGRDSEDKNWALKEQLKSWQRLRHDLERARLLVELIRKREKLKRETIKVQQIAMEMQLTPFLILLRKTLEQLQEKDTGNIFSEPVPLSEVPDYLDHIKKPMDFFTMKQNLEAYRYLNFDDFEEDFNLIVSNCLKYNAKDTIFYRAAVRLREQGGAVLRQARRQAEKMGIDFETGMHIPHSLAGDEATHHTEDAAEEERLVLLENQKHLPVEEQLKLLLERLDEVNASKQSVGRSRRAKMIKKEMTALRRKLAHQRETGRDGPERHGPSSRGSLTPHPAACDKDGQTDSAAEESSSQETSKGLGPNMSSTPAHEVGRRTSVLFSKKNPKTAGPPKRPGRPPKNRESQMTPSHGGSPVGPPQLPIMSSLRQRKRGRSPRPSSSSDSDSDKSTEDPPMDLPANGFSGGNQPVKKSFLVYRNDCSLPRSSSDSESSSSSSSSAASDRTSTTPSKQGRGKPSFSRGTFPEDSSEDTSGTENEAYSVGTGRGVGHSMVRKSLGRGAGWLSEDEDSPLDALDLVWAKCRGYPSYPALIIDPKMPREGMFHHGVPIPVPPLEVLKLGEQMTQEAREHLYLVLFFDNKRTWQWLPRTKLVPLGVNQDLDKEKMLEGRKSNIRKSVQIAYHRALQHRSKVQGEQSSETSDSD

[10] = target: Bromodomain and WD repeat-containing protein 1 (Homo sapiens, UniProt Q9NSI6); test: Binding affinity to human partial length DNA-tagged […] BD2 expressed in bacterial by BROMOscan method
[11] = target: ATPase family AAA domain-containing protein 2 (Homo sapiens, UniProt Q6PL18); test: Binding affinity to human partial length DNA-tagged ATAD2A expressed in bacterial by BROMOscan method
[12] = target: Bromodomain-containing protein 1 (Homo sapiens, UniProt O95696); test: Binding affinity to human partial length DNA-tagged BRD1 expressed in bacterial by BROMOscan method
[13] = target: Bromodomain-containing protein 7 (Homo sapiens, UniProt Q9NPI1); test: Binding affinity to human partial length DNA-tagged BRD7 expressed in mammalian expression system by BROMOscan method
[14] = target: Bromodomain-containing protein 8 (Homo sapiens, UniProt Q9H0E9); test: Binding affinity to DNA-tagged BRD8 (unknown origin) by BROMOscan method
[15] = target: Bromodomain and PHD finger-containing protein 3 (Homo sapiens, UniProt Q9ULD4); test: Binding affinity to human partial length DNA-tagged BRPF3 expressed in bacteria by BROMOscan method
CREB-binding protein = CREB-binding protein (Homo sapiens, UniProt Q92793); test: Binding affinity to human partial length DNA-tagged CREBBP expressed in bacteria by BROMOscan method
Protein polybromo-1 [16] = target: T5, Protein polybromo-1 (Homo sapiens, UniProt Q86U86); test: Binding affinity to human partial length DNA-tagged PBRM1 BD1 expressed in bacteria by BROMOscan method
Protein polybromo-1 [17] = target: T5, Protein polybromo-1; test: Binding affinity to human partial length DNA-tagged PBRM1 BD5 expressed in bacteria by BROMOscan method
[18] = target: SWI/SNF-related matrix-associated actin-dependent regulator of chromatin subfamily A member 4 (Homo sapiens, UniProt P51532); test: Binding affinity to human partial length DNA-tagged SMARCA4 expressed in bacteria by BROMOscan method
[19] = target: Transcription initiation factor TFIID subunit 1-like (Homo sapiens, UniProt Q8IZX4); test: Binding affinity to human partial length DNA-tagged TAF1L BD2 expressed in bacteria by BROMOscan method
[20] = target: T3, Bromodomain-containing protein 4; test: Selectivity ratio of Kd for human partial length DNA-tagged BRD4 isoform long BD1 to Kd for human partial length DNA-tagged BRD4 isoform long BD2
[21] = target: T2, Bromodomain testis-specific protein; test: Selectivity ratio of Kd for human partial length DNA-tagged BRDT isoform b BD1 to Kd for human partial length DNA-tagged BRDT isoform b BD2
Homo sapiens [22] = species on record: Homo sapiens; test: Selectivity ratio of IC50 for BRD3 BD1 (unknown origin) to IC50 for BRD3 BD2 (unknown origin)
Homo sapiens [23] = species on record: Homo sapiens; test: Selectivity ratio of IC50 for BRDT BD1 (unknown origin) to IC50 for BRDT BD2 (unknown origin)
physchem = conditions: buffer, pH 7.4
Description: Chromatographic hydrophobicity index, log D of the compound at pH 7.4 by HPLC method

T1 sequence (P25440 whole entry): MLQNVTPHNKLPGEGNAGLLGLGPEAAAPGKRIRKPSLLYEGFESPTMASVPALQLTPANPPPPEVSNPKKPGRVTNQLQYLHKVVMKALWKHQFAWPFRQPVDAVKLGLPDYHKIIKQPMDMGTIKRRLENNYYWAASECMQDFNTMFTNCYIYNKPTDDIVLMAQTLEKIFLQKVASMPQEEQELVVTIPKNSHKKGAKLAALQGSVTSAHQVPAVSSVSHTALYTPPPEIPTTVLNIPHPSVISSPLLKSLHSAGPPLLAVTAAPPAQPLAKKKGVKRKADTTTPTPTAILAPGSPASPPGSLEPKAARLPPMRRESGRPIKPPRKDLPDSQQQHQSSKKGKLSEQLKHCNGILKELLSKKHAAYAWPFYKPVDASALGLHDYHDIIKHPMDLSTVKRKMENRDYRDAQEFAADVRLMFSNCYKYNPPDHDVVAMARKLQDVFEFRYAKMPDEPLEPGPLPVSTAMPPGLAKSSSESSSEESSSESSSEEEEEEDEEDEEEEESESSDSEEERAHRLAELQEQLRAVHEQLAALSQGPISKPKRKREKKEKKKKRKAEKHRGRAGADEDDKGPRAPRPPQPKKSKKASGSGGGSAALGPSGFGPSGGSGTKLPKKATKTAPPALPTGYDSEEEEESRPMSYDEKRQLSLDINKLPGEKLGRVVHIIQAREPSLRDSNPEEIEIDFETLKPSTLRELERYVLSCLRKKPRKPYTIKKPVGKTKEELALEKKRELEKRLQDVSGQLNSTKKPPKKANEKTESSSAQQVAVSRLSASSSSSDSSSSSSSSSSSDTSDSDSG
T5 sequence (Q86U86 whole entry): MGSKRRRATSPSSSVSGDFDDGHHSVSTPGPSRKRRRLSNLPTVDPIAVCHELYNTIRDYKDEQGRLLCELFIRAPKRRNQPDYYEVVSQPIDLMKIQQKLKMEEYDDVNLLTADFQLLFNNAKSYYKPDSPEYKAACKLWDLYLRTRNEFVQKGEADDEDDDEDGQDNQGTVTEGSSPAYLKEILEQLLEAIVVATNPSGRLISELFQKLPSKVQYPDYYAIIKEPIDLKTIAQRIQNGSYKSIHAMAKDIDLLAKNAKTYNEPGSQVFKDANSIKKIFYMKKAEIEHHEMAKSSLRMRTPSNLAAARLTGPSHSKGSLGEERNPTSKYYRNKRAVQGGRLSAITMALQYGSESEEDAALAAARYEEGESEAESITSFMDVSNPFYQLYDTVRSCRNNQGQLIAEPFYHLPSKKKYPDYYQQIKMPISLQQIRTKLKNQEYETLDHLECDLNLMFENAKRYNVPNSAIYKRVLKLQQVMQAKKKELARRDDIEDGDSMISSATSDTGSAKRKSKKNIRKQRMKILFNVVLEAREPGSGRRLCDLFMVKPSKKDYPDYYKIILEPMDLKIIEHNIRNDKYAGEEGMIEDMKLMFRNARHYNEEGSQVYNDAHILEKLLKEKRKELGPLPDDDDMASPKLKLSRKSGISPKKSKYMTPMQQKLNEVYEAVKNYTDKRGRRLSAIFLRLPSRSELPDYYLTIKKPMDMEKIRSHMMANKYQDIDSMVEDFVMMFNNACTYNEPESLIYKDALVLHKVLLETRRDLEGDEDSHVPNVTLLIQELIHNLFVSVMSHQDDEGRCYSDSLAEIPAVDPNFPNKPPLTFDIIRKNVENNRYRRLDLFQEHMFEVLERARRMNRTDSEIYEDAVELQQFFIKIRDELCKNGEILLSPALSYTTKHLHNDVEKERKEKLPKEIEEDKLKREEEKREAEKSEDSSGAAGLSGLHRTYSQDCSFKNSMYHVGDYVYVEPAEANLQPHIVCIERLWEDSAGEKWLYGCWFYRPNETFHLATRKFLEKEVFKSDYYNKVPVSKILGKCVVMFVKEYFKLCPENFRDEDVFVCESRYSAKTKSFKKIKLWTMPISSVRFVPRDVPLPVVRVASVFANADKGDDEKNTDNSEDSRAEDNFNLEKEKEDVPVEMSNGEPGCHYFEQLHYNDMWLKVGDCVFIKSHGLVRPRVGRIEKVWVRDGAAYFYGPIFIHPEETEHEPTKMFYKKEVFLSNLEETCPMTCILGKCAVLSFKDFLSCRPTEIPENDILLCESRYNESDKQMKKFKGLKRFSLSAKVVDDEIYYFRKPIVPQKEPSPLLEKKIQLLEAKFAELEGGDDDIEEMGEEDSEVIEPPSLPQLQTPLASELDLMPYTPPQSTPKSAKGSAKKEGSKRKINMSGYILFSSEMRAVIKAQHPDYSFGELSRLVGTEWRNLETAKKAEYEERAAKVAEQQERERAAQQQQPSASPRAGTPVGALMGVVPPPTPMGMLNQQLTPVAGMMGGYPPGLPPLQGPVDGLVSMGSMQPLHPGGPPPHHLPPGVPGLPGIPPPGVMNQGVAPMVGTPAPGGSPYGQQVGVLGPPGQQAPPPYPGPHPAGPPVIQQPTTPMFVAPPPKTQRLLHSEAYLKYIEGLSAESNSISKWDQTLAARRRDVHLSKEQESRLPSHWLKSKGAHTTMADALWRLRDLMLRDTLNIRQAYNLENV
Sequence of SWI/SNF-related matrix-associated actin-dependent regulator of chromatin subfamily A member 4 (P51532 whole entry): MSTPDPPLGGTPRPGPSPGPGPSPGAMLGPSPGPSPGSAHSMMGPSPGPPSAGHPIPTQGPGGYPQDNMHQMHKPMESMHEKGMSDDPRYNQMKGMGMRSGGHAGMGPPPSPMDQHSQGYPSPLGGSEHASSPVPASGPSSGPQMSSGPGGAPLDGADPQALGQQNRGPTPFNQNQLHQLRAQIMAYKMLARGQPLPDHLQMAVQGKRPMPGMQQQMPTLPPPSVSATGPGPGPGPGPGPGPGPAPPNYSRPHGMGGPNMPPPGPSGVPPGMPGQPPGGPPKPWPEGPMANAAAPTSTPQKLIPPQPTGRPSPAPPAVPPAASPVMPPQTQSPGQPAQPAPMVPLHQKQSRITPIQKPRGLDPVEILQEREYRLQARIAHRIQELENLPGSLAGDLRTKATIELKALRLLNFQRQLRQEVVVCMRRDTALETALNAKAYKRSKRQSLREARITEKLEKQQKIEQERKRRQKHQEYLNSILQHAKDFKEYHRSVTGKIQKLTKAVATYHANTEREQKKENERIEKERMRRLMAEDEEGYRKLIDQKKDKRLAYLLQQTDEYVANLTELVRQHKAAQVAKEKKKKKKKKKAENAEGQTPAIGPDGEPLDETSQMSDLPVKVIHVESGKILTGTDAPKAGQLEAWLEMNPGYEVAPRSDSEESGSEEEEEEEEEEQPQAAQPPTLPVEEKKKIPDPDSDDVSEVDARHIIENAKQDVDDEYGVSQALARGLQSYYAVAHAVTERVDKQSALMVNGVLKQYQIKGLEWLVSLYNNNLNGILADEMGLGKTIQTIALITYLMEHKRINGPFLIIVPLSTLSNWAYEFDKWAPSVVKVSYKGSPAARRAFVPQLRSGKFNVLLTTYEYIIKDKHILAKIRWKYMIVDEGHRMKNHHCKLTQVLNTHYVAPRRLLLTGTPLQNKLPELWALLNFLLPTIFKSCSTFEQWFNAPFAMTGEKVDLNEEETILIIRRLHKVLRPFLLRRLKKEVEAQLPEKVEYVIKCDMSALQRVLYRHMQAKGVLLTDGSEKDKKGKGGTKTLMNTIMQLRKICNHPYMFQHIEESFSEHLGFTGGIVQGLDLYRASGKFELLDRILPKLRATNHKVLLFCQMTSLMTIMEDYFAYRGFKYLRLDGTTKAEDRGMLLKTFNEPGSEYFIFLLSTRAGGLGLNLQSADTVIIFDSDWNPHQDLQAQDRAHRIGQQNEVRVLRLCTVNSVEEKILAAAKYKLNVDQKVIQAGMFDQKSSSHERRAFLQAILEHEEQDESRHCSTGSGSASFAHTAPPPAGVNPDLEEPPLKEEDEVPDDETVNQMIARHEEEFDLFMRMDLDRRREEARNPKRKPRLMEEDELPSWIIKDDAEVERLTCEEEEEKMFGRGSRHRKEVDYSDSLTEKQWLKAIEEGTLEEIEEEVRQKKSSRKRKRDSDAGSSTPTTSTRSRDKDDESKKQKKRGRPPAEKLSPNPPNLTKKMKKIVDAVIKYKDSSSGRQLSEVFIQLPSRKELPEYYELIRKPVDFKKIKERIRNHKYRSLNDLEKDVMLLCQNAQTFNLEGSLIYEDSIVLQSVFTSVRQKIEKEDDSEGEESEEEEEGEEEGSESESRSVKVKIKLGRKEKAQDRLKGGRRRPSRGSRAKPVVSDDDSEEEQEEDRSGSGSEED
Sequence of Bromodomain-containing protein 3 (Q15059 whole entry): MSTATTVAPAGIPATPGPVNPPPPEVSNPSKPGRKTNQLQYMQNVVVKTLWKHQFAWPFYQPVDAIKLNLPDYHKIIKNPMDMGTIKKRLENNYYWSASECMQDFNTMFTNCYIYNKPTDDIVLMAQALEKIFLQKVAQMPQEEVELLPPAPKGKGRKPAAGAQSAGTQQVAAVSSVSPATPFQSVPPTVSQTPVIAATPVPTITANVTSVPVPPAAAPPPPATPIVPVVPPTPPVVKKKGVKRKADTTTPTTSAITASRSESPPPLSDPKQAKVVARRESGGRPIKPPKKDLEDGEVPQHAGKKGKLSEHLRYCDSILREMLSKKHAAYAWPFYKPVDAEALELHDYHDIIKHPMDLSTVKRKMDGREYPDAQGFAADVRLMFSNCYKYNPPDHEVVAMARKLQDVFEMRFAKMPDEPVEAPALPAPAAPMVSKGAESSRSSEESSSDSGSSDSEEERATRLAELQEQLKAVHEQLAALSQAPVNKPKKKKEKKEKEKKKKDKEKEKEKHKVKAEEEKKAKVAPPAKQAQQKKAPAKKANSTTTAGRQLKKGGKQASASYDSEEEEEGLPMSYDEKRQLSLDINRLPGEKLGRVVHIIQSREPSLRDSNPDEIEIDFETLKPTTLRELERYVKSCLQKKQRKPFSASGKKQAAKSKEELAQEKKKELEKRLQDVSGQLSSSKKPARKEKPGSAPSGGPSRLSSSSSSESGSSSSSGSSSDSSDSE

Work on `CC(=O)N1c2ccc(C3=CCNCC3)cc2N(Cc2ccccc2CO)C[C@@H]1C1CC1` yielded a pIC50 [1] of 5.60, a pIC50 [2] of 6.50 and a pIC50 [3] of 7.30. It also gave a pIC50 [4] of 5.80, a pIC50 [5] of 6.70 and a pKd [6] of 5.81. The pKd [7] was 7.49, the pKd [8] was 5.73 and the pKd [9] was 7.68. The pKd (Peregrin) was 5.61, the pKd [10] was 4.82 and the pKd [11] was < 4.52. For the same molecule, the pKd [12] was < 4.52, the pKd [13] was < 4.52 and the pKd [14] was < 4.52. For the same molecule, the pKd [15] was < 4.52, the pKd (CREB-binding protein) was < 4.52 and the pKd (Protein polybromo-1 [16]) was < 4.52. For the same molecule, the pKd (Protein polybromo-1 [17]) was < 4.52, the pKd [18] was < 4.52 and the pKd [19] was < 4.52. The Selectivity ratio [20] was 229, the Selectivity ratio [21] was 91 and the Ratio IC50 (Homo sapiens [22]) was 25. It also gave a Ratio IC50 (Homo sapiens [23]) of 8 and a chromatographic logD (physchem) of 2.3.
